In the supplement of paper PMC4862054:

Columns and labels:
Conditions in all cases: 72 h
CAL-85-1 [1] = test system: CAL-85-1
Summary of the method: (§1)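 The plates used were 384-well plates holding compound at 5 concentrations in 10-fold steps across a compound-specific 10,000-fold range, into which breast cancer cell lines were seeded in 20 µl suspension. Following 72 h incubation, CellTox Green fluorescence was read at 485/520 nm, and CellTiter-Glo luminescence was read after 10 min at room temperature. Normalisation on each plate used 0.1 % DMSO and a positive kill control. Dose-response curves gave the EC50, which was censored at the top concentration.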

HDQ-P1 [2] = test system: HDQ-P1
Summary of the method: as §1

MCF-10A = test system: MCF-10A
Summary of the method: as §1

MDA-MB-453 = test system: MDA-MB-453
Summary of the method: as §1

SK-BR-3 [3] = test system: SK-BR-3
Summary of the method: as §1

BT-474 = test system: BT-474
Procedure: (§2)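 Drug sensitivity and resistance testing (DSRT) of breast cancer cell lines in 384-well plates, 5 concentrations in 10-fold dilutions over a compound-specific 10,000-fold range. After 72 h, cytotoxicity was read by CellTox Green fluorescence and viability by CellTiter-Glo luminescence (multiplexed), normalised to DMSO and benzethonium chloride controls. EC50 is the inflection point of the fitted dose-response curve (bottom asymptote free, so it can be relative for partial curves) and is censored at the highest tested concentration. Rows with DSS 0 (no meaningful response) were excluded.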

CAL-85-1 [4] = test system: CAL-85-1; remark: listed apart in the source
Procedure: as §2

MDA-MB-436 [5] = test system: MDA-MB-436
Procedure: as §2

BT-549 [6] = test system: BT-549
Summary of the method: as §1

CAL-120 [7] = test system: CAL-120
Summary of the method: as §1

CAL-148 [8] = test system: CAL-148
Summary of the method: as §1

DU-4475 [9] = test system: DU-4475
Summary of the method: as §1

HCC1143 [10] = test system: HCC1143
Summary of the method: as §1

HCC1599 [11] = test system: HCC1599
Summary of the method: as §1

Hs578T [12] = test system: Hs578T
Summary of the method: as §1

MDA-MB-231 [13] = test system: MDA-MB-231
Summary of the method: as §1

MDA-MB-436 [14] = test system: MDA-MB-436; remark: listed apart in the source
Summary of the method: as §1

CAL-51 [15] = test system: CAL-51
Summary of the method: (§3)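 Rows with a drug sensitivity score of zero were dropped, and EC50 was taken from the fitted percent-inhibition dose-response curve, censored at the highest concentration. Data were normalised on each plate to vehicle and a positive kill control and checked by Z'-factor. The assay seeded breast cancer cell lines in 20 µl onto 384-well plates pre-loaded with compound in 5 µl medium for 72 h, then added 2.5 µl CellTiter-Blue for 2 h at 37 °C and read fluorescence at 560/590 nm.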

CAL-85-1 [16] = test system: CAL-85-1; remark: listed apart in the source
Summary of the method: as §3

DU-4475 [17] = test system: DU-4475; remark: listed apart in the source
Summary of the method: as §3

HDQ-P1 [18] = test system: HDQ-P1; remark: listed apart in the source
Summary of the method: as §3

BT-549 [19] = test system: BT-549; remark: listed apart in the source
Summary of the method: as §3

HCC1143 [20] = test system: HCC1143; remark: listed apart in the source
Summary of the method: as §3

HCC1599 [21] = test system: HCC1599; remark: listed apart in the source
Summary of the method: as §3

Hs578T [22] = test system: Hs578T; remark: listed apart in the source
Summary of the method: as §3

MDA-MB-436 [23] = test system: MDA-MB-436; remark: listed apart in the source
Summary of the method: as §3

MDA-MB-468 [24] = test system: MDA-MB-468
Summary of the method: as §3

SK-BR-3 [25] = test system: SK-BR-3; remark: listed apart in the source
Summary of the method: as §3

CAL-120 [26] = test system: CAL-120; remark: listed apart in the source
Procedure: as §2

CAL-148 [27] = test system: CAL-148; remark: listed apart in the source
Procedure: as §2

CAL-51 [28] = test system: CAL-51; remark: listed apart in the source
Procedure: as §2

DU-4475 [29] = test system: DU-4475; remark: listed apart in the source
Procedure: as §2

Hs578T [30] = test system: Hs578T; remark: listed apart in the source
Procedure: as §2

MDA-MB-468 [31] = test system: MDA-MB-468; remark: listed apart in the source
Procedure: as §2

BT-549 [32] = test system: BT-549; remark: listed apart in the source
Procedure: as §2

HCC1937 [33] = test system: HCC1937
Summary of the method: as §1

MFM-223 [34] = test system: MFM-223
Summary of the method: as §1

MFM-223 [35] = test system: MFM-223; remark: listed apart in the source
Summary of the method: as §3

HCC1937 [36] = test system: HCC1937; remark: listed apart in the source
Procedure: as §2

MDA-MB-231 [37] = test system: MDA-MB-231; remark: listed apart in the source
Procedure: as §2

Row | EC50, CellTiter-Glo (MDA-MB-453) [nM] | EC50, CellTiter-Glo (SK-BR-3 [3]) [nM] | EC50, CellTiter-Glo (BT-549 [6]) [nM] | EC50, CellTiter-Glo (HCC1143 [10]) [nM] | EC50, CellTiter-Glo (HCC1599 [11]) [nM] | EC50, CellTiter-Glo (MDA-MB-231 [13]) [nM] | EC50, CellTiter-Glo (MDA-MB-436 [14]) [nM] | EC50, CellTiter-Blue viability (BT-549 [19]) [nM] | EC50, CellTiter-Blue viability (HCC1143 [20]) [nM] | EC50, CellTiter-Blue viability (HCC1599 [21]) [nM] | EC50, CellTiter-Blue viability (MDA-MB-436 [23]) [nM] | EC50, CellTiter-Blue viability (MDA-MB-468 [24]) [nM] | EC50, CellTiter-Blue viability (SK-BR-3 [25]) [nM] | EC50, CellTiter-Glo (HCC1937 [33]) [nM] | SMILES | EC50, CellTiter-Glo (CAL-85-1 [1]) [nM] | EC50, CellTiter-Glo (HDQ-P1 [2]) [nM] | EC50, CellTiter-Glo (MCF-10A) [nM] | EC50, CellTox Green (BT-474) [nM] | EC50, CellTox Green (CAL-85-1 [4]) [nM] | EC50, CellTox Green (MDA-MB-436 [5]) [nM] | EC50, CellTiter-Glo (CAL-120 [7]) [nM] | EC50, CellTiter-Glo (CAL-148 [8]) [nM] | EC50, CellTiter-Glo (DU-4475 [9]) [nM] | EC50, CellTiter-Glo (Hs578T [12]) [nM] | EC50, CellTiter-Blue viability (CAL-51 [15]) [nM] | EC50, CellTiter-Blue viability (CAL-85-1 [16]) [nM] | EC50, CellTiter-Blue viability (DU-4475 [17]) [nM] | EC50, CellTiter-Blue viability (HDQ-P1 [18]) [nM] | EC50, CellTiter-Blue viability (Hs578T [22]) [nM] | EC50, CellTox Green (CAL-120 [26]) [nM] | EC50, CellTox Green (CAL-148 [27]) [nM] | EC50, CellTox Green (CAL-51 [28]) [nM] | EC50, CellTox Green (DU-4475 [29]) [nM] | EC50, CellTox Green (Hs578T [30]) [nM] | EC50, CellTox Green (MDA-MB-468 [31]) [nM] | EC50, CellTox Green (BT-549 [32]) [nM] | EC50, CellTiter-Glo (MFM-223 [34]) [nM] | EC50, CellTiter-Blue viability (MFM-223 [35]) [nM] | EC50, CellTox Green (HCC1937 [36]) [nM] | EC50, CellTox Green (MDA-MB-231 [37]) [nM]
1 | 74.8 | 26.3 |  |  |  |  |  |  |  |  |  |  |  |  | COc1cc2ncnc(Nc3ccc(F)c(Cl)c3)c2cc1NC(=O)/C=C/CN1CCCCC1 [Dacomitinib] | 56.8 | 3.24 | 6.27 | 82.4 | 564 | 319 |  |  |  |  |  |  |  |  |  |  |  |  |  |  |  |  |  |  |  | 
2 |  | 1210 | 3990 | 1650 | 1150 | 1850 | 977 | 224 | 1600 | 1700 | 2610 | 1810 | 785 |  | COc1cc([C@@H]2c3cc4c(cc3[C@@H](O[C@@H]3O[C@@H]5CO[C@@H](C)O[C@H]5[C@H](O)[C@H]3O)[C@H]3COC(=O)[C@H]23)OCO4)cc(OC)c1O [Etoposide] | 9970 |  |  |  | 7710 |  | 1550 | 980 | 1260 | 1490 | 367 | 2550 | 180 | 775 | 3040 | 3670 | 3020 | 624 | 3830 | 55.8 | 2330 |  |  |  |  | 
3 |  |  |  |  |  |  |  |  |  |  |  |  |  |  | O=P1(NCCCl)OCCCN1CCCl (centres undefined) [Ifosfamide] |  |  |  |  |  | > 10000 |  |  |  |  |  |  |  |  |  |  |  |  |  |  |  | > 10000 |  |  |  | 
4 | > 1000 |  | 689 |  |  | 382 | 265 | 893 |  | 217 |  |  |  | > 1000 | Cc1ccc(C(=O)Nc2ccc(CN3CCN(C)CC3)c(C(F)(F)F)c2)cc1C#Cc1cnc2cccnn12 [Ponatinib] | > 1000 | 220 | 643 |  |  |  | 162 |  | 588 |  | 869 |  |  | 307 | > 1000 | 482 |  |  |  |  |  |  | 31.8 | 8.43 | 387 | 231
